Common to all, as to type: cell-based
Assay [1] concerns Salmonella typhosa ATCC 9922. Kind of assay: Minimum inhibitory concentration by agar dilution method, Salmonella typhosa ATCC 9922. The settings on record: for MIC: Salmonella enterica, read-out: Minimum Inhibitory Concentration. From the text:
(§1) Table 1 illustrates minimum inhibitory concentration of 1-N-(α-hydroxy-δ-aminovaleryl)XK-62-2 and 1-N-(α-hydroxy-ε- aminocaproyl)XK-62-2 against various Gram-negative and Gram-positive bacteria determined by agar dilution method.
A general note: In agar dilution the substance is mixed into plates at graded concentrations.

The test system of assay [2] is Escherichia coli strains having R factors. As to the kind of experiment: Antibacterial activity against Escherichia coli strains having R factors. Conditions: resistant to known aminoglycoside antibiotics, in words.
Text: as §1

Another assay has as its system Escherichia coli ATCC 26. As to the kind of experiment: Minimum inhibitory concentration by agar dilution method, Escherichia coli ATCC 26.
Text: as §1

Assay [3] deals with Klebsiella penumoniae ATCC 10031. Kind of assay: Minimum inhibitory concentration by agar dilution method, Klebsiella penumoniae ATCC 10031. The settings on record: for MIC: ATCC10031.
Text: as §1

The test system of a further assay is Escherichia coli KY 8327. Kind of assay: Minimum inhibitory concentration by agar dilution method, Escherichia coli KY 8327. Conditions: for antibacterial activity: Escherichia coli KY 8327, resistant to kanamycins and gentamicins, in words; for MIC: KY8327.
Text: as §1
(§2) In the above Table 1, Escherichia coli KY 8327 and KY 8348 respectively produce adenyltransferase and acetyltransferase intracellularly; the former enzyme inactivates kanamycins and gentamicins by adenylation, and the latter inactivates gentamicins by acetylation.

Assay [4] relates to Staphylococcus aureus ATCC 6538P. As to the kind of experiment: Minimum inhibitory concentration by agar dilution method, Staphylococcus aureus ATCC 6538P. Conditions: for MIC: ATCC6538P.
Text: as §1

In assay [5] the test system is Bacillus subtilis No. 10707. Kind of assay: Minimum inhibitory concentration by agar dilution method, Bacillus subtilis No. 10707.
Text: as §1

Assay [6] relates to Pseudomonas aeruginosa BMH No. 1. Kind of assay: Minimum inhibitory concentration by agar dilution method, Pseudomonas aeruginosa BMH No. 1. Conditions: for MIC: BMHNO.1.
Text: as §1

The subject of assay [7] is Shigella sonnel ATCC 9290. As to the kind of experiment: Minimum inhibitory concentration by agar dilution method, Shigella sonnel ATCC 9290. The settings on record: for MIC: Shigella, ATCC9290, read-out: Minimum Inhibitory Concentration.
Text: as §1

In assay [8] the test system is Proteus vulgaris ATCC 6897. Kind of assay: Minimum inhibitory concentration by agar dilution method, Proteus vulgaris ATCC 6897.
Text: as §1

For another assay, the system named is Escherichia coli KY 8348. Kind of assay: Minimum inhibitory concentration by agar dilution method, Escherichia coli KY 8348. The settings on record: for antibacterial activity: Escherichia coli KY 8348, resistant to known aminoglycoside antibiotics, in words; for MIC: KY8348.
Text: as §1, §2

Where [9] appears, read: Escherichia coli KY 8327 (produces adenyltransferase), agar dilution method.
The mark [10] stands for this setting: Escherichia coli KY 8348 (produces acetyltransferase), agar dilution method.

The text below walks through data of patent US4076931A, “Derivatives of an antibiotic XK-62-2 and the process for the production thereof” (Abbott Laboratories, priority 1974, dated 1978).

Values after ≈ are worked out from the molar mass of the structure shown. Read-outs that look alike come from different tables or passages of the source. Some results are limits rather than exact numbers.

Take “1-N-[L-(-)-α-hydroxy-ε-aminocaproyl]XK-62-2”: the “Minimum Inhibitory Concentration” value in assay [1] (Salmonella typhosa ATCC 9922, agar dilution method) amounted to 0.065 µg/mL; in the assay on Escherichia coli ATCC 26 (Escherichia coli ATCC 26, agar dilution method), 0.13 µg/mL; in [3], 0.033 µg/mL; in the assay on Escherichia coli KY 8327 (setting [9]) it was 0.013 µg/mL; in assay [4] it was 0.033 µg/mL; in [5], 0.008 µg/mL. In addition, the “Minimum Inhibitory Concentration” value amounted to 4.17 µg/mL in [6]; 0.26 µg/mL in assay [7] (Shigella sonnel ATCC 9290, agar dilution method); 0.26 µg/mL in assay [8] (Proteus vulgaris ATCC 6897, agar dilution method); 0.065 µg/mL in the assay on Escherichia coli KY 8348 (setting [10]). Moreover, the antibacterial activity result in assay [2] is “strong antibacterial activity”; with Escherichia coli KY 8327 it was “very strong antibacterial activity”; in the assay on Escherichia coli KY 8348, “very strong antibacterial activity”.
As to `CNC[C@@H]1CC[C@@H](N)[C@@H](O[C@H]2[C@H](O)[C@@H](O[C@H]3OC[C@](C)(O)[C@H](NC)[C@H]3O)[C@H](NC(=O)[C@@H](O)CCCN)C[C@@H]2N)O1` [1-N-[L-(-)-α-hydroxy-δ-aminovaleryl]XK-62-2], the MIC in assay [1] is 0.016 mg/L (≈ 0.0276 µM); in the assay with Escherichia coli ATCC 26 (ATCC26, Escherichia coli ATCC 26, agar dilution method, read-out: Minimum Inhibitory Concentration), 0.033 mg/L (≈ 0.057 µM); in [3] it was 0.008 mg/L (≈ 0.0138 µM); against Escherichia coli KY 8327 (setting [9]) it was 0.065 mg/L (≈ 0.112 µM); in [4], 0.008 mg/L (≈ 0.0138 µM); in assay [5], below 0.004 mg/L. In addition, the MIC in [6] turned out to be 0.52 mg/L (≈ 0.899 µM); in assay [7] it was 0.065 mg/L (≈ 0.112 µM); in [8] (ATCC6897, Proteus vulgaris ATCC 6897, agar dilution method, read-out: Minimum Inhibitory Concentration), 0.065 mg/L (≈ 0.112 µM); against Escherichia coli KY 8348 (setting [10]), 0.033 mg/L (≈ 0.057 µM). Further, the antibacterial activity entry in [2] is reported as “strong antibacterial activity”; in the assay with Escherichia coli KY 8327, “very strong antibacterial activity”; in the assay with Escherichia coli KY 8348, “very strong antibacterial activity”.
In the case of `CNC[C@@H]1CC[C@@H](N)[C@@H](O[C@H]2[C@H](O)[C@@H](O[C@H]3OC[C@](C)(O)[C@H](NC)[C@H]3O)[C@H](N)C[C@@H]2N)O1` [XK-62-2], the MIC was 0.008 mg/L (≈ 0.0173 µM) in assay [1]; 0.016 mg/L (≈ 0.0345 µM) with Escherichia coli ATCC 26 (Escherichia coli, ATCC26, read-out: Minimum Inhibitory Concentration); below 0.004 mg/L in assay [3]; 1.04 mg/L (≈ 2.24 µM) against Escherichia coli KY 8327 (setting [9]); below 0.004 mg/L in [4]; below 0.004 mg/L in [5]. Further, the MIC turned out to be 0.13 mg/L (≈ 0.28 µM) in assay [6]; 0.033 mg/L (≈ 0.0712 µM) in [7]; 0.016 mg/L (≈ 0.0345 µM) in [8] (Proteus vulgaris, ATCC6897, read-out: Minimum Inhibitory Concentration); 1.04 mg/L (≈ 2.24 µM) in the assay with Escherichia coli KY 8348 (setting [10]).
